The test system of experiment [1] is TNF. The experiment in a line: In vivo endotoxin shock models (P. acnes model and/or LPS-GAL model, not specified which). To be noted: for in vivo TNF levels / protection from endotoxic induced shock: one or both of the in vivo assays (P. acnes / LPS-GAL). On the set-up: species or system mice. As for the experimental part:
Two models of endotoxin shock have been utilized to determine in vivo TNF activity and are described below. The actual protocoll used in the models is described in Utility Model Examples A and B set out below, i.e. P. Acnes model and LPS-GAL model.
(§1) Briefly, D-gal ([…]) sensitizes various strains of mice to the lethal effects of endotoxin. The administration of D-gal (300-500mg/kg) intra-venously (i.v.) sensitizes the mice to doses of Lipopolysaccharide(LPS ) as low as 0.1 mg. Briefly, male C57BL/6 mice, obtained from Charles River Laboratories (Stone Ridge, New York, USA) of 6-12 weeks of age were injected i.v. with 0.1 mg of LPS from Salmonella typhosa (Difco Laboratories, Detroit, Michigan, USA) admixed with D(+)-gal (Sigma; 500 mg/kg) in 0.20-0.25 ml pyrogen-free saline. Compounds to be tested were administered at various times prior to or following the iv. injection of LPS/D-gal.
This model is a modification of the previously described protocol for the in vivo induction of TNF as described in Haranaka et al., Cancer Immunol Immunother, 18:87-90, (1984). Treatment with Proprionibacterium Acnes (P. acnes) (1mg/animal i.p.) renders mice susceptible to the lethal effects of LPS injected 10 days later.
P. acnes was purchased from Burroughs Wellcome (Triangle Park, North Carolina, USA), and […]of the heat-killed bacteria was administered in 0.5 ml pyrogen-free saline by intraperitoneal (i.p.) injection to male C57BL/6 mice, obtained from Charles River Laboratories (Stone Ridge, New York, USA) of 6-12 weeks of age. Ten days later, the mice were injected iv. with 1 mg LPS in 0.25 ml saline. Compounds to be tested were administered at various times prior to or following the injection of LPS. The survival of animals was monitored for 1 week.
(§2) Plasma levels of TNF were measured using a modification of the basic sandwich ELISA method described in Winston et al., Current Protocols in Molecular Biology, Pg. 11.2.1, Ausubel et al., Ed. (1987) John Wiley and Sons, New York, USA. The Elisa employed a hampster monoclonal anti-mouse TNF (Genzyme, Boston, MA, USA) as the capture antibody and a polyclonal rabbit anti-murine TNF (Genzyme, Boston, MA, USA) as the detecting antibody. TNF levels in rat samples were calculated from a standard curve genereated with recombinant murine TNF (Genzyme, Boston, MA, USA).

In experiment [2] the test system is TNF. The experiment can be described thus: Endotoxin shock in D-gal-sensitized mice (LPS-GAL model), TNF levels by ELISA and survival. In kind it is in vivo. The method, then:
as §1, with “The protocol used to test the compound of the method of the subject invention was essentially as has been described in Galanos et al., Proc. Nat'l Acad. Sci USA, 76:5939-43 (1979) whose disclosure is herein incorporated by reference. Briefly, D-gal” for “Briefly, D-gal”, “of LPS/D-gal. In this model, the control animals usually die 5-6 hr. following the injection of LPS, although on occasion deaths are seen between 24 and 48 hr.” for “of LPS/D-gal.”
as §2, with “USA). TNF levels determined by ELISA correlated with levels detected by the L929 bioassay of Ruff et. al., J. Immunol. 125:1671-1677 (1980), with 1 Unit of activity in the bioassay corresponding to 70 picograms (pg) of TNF in the ELISA. The ELISA detected levels of TNF down to 25 pg/ml.” for “USA).”

Experiment [3] relates to IL-1 production by bacterial lipopolysaccharide (LPS)-stimulated human monocytes. To be noted: cited from earlier work.
For the next experiment, the system named is TNFa. To be noted: Badger et al. 1989, cited from earlier work.
Experiment [4] deals with TNFa production by monocytes. To be noted: Lee et al. 1988 and Badger et al. 1989; cited from earlier work.
A further experiment deals with T1, 5-lipoxygenase (Homo sapiens, UniProt P09917).
T1 sequence (P09917 1-674): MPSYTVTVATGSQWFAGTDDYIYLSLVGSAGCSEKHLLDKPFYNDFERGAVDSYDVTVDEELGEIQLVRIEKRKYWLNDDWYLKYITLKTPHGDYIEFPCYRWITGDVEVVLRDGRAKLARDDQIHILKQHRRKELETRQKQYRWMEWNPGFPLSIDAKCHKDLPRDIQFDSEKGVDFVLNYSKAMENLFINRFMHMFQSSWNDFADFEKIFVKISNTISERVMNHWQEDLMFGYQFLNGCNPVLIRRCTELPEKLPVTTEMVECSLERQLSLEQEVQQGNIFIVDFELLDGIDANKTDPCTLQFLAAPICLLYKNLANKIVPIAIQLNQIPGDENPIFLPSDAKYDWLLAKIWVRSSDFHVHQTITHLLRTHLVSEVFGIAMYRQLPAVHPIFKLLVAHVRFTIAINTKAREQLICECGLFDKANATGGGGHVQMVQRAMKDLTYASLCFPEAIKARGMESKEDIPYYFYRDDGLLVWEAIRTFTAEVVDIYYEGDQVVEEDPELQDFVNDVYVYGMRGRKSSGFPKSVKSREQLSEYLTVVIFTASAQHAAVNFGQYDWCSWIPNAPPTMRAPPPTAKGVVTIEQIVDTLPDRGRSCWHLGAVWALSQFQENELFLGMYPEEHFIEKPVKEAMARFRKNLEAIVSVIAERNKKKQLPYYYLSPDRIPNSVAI
To be noted: Lee et al. 1988; cited from earlier work.

The test system of another experiment is cyclooxygenase. To be noted: Lee et al. 1988; cited from earlier work.
Experiment [5] has as its system TNF Production by Human Monocytes. The experiment in a line: Inhibitory effect on in vitro LPS induced TNF production by human monocytes (ELISA). In kind it is cell-based. To be noted: Monocyte; LPS (50 ng/ml) induced TNF, human peripheral blood monocytes, compound added 1 hr before LPS, 24 hours; NA - not active; read-out: IC₅₀. The method, then:
The effects of the compounds enumerated above on the in vitro production of TNF by human monocytes was examined using the following protocol..
Bacterial lipopolysaccharide (LPS) was used to induce TNF production by human peripheral blood monocytes. TNF activity was measured by a modification of Winston et al., ELISA, described below. Human peripheral blood monocytes were isolated and purified from either fresh blood preparations from volunteer donors, from blood bank buffy coats, or from plateletpheresis residues according to the procedure of Colotta et al., J. Immunol., 132, 936 (1984). 1 X 10⁶ of such monocytes were plated in 24-well plates at a concentration of 1-2 million/ml per well. The cells were allowed to adhere for 2 hours, after which time non-adherent cells were removed by gentle washing. Test compounds were then added to the cells for 1 hour (hr) before the addition of LPS (50 ng/ml), and the cultures were incubated at 37 °C for an additional 24 hours. At the end of the incubation period, culture supernatants were removed and clarified of cells and all debris. Culture supernatants were immediately assayed for TNF levels in the manner described below.
Levels of TNF were mesured using a modification of the basic sandwich ELISA assay method described in Winston et al., Current Protocols in Molecular Biology. Page 11.2.1, Ausubel et al., Ed. (1987) John Wiley and Sons, New York, USA The Elisa employes a murine monoclonal anti-human TNF antibody, described below, as the capture antibody and a polyclonal rabbit anti-human TNF , described below, as the second antibody. For detection, a peroxidase-conjgated goat anti-rabbit antibody (Boehringer Mannheim, Indianopolis, Indiana, USA, Catalog #605222) was added followed by a substrate for peroxidase (1mg/ml orthophenylenediamine with 0.1% urea peroxide). TNF levels in samples were calculated from a standard curve genereated with recombinant human TNF produced in E. Coli (obtained from SmithKline Beecham Pharmaceuticals, King of Prussisa, PA, USA).
Monoclonal antibodies to human TNF were prepared from spleens of BALB/c mice immunized with recombinant human TNF using a modification of the method of Kohler and Millstein, Nature 256: 495(1975), the entire disclosure of which is hereby incorporated by reference. Polyclonal rabbit anti-human TNF antibodies were prepared by repeated immunization of New Zeland White (NZW) rabbits with recombinant human TNF emulsified in complete Freund's adjuvant (DIFCO, IL., USA).

Read-outs that look alike come from different tables or passages of the source.

Take `O=S1(=O)CCn2c1nc(-c1ccc(F)cc1)c2-c1ccncc1` [6-(4-Fluorophenyl)-5-(4-pyridyl)-2,3-dihydroimidazo[2,1-b]thiazole-1,1-dioxide]: in the experiment on TNF [1], the “in vivo TNF levels” value is given as “inhibited in vivo TNF levels” and the “protection from endotoxic induced shock” value is “protected the animals from endotoxic induced shock”.
As for `Fc1ccc(-c2nc3n(c2-c2ccncc2)CCS3)cc1` [Compound 1, 6-(4-Flurophenyl)-5-(4′pyridyl)-2,3-dihydroimidazo[2,1-b]-thiazole], the “reduction of serum TNF levels” value with TNF [2] (LPS-GAL Model, 100 mg/kg, Figure 4) was “reduction of serum TNF levels”. In addition, the survival rate in the experiment with TNF [2] (LPS-GAL model, animals with endotoxic shock, Figure 5, control group 30%) is given as 100%. Also, the TNF production entry with TNF [2] (LPS-Gal mouse model, i.p. injection, Figure 3) is listed as “inhibitis TNF production”. The “protection from the lethal effects of endotoxin shock” value in the experiment on TNF [1] (P. Acnes model and LPS-GAL model) is on record as “protection from the lethal effects of endotoxin shock”. Moreover, the “in vivo TNF levels” value in the experiment on TNF [1] was “reduce the in vivo level of tumor necrosis factor (TNF)”. Moreover, the IL-1 production result in experiment [3] (Lee et al. 1988, listed as 5-(4-pyridyl)-6(4-fluorophenyl)-2,3-dihydroimidazo(2,1-B)-thiazole) is recorded as “inhibit”; in experiment [3] (Lee et al. 1988, listed as 5-(4-pyridyl)-6(4-fluorophenyl)-2,3-dihydroimidazo(2,1-B)thiazole), “potent inhibitor”. Besides, the “circulating levels of TNFa” value in the experiment on TNFa (mouse models of LPS-induced shock) is “inhibition of circulating levels of TNFa”. Further, in the experiment on TNFa (two mouse models), the “protection against LPS-induced shock” value is on record as “protection”. Moreover, the “TNFa production by monocytes” value in experiment [4] was “inhibit”. The 5-lipoxygenase-mediated arachidonate metabolism result at 5-lipoxygenase is recorded as “inhibits”. In addition, in the experiment with cyclooxygenase, the cyclooxygenase-mediated arachidonate metabolism result is “inhibits”.
For the compound `O=S1(=O)CCn2c1nc(-c1ccc(F)cc1)c2-c1ccncc1` [Compound 14, 6-(4-Fluorophenyl)-5-(4-pyridyl)-2,3-dihydroimidazo[2,1-b]thiazole-1,1-dioxide], the IC50 in experiment [5] was determined as 9000 nM.
Same read-out and setting: under `CSc1ccc(-c2nc3n(c2-c2ccncc2)CCC3)cc1` [Compound 3, 2-(4-methylthiophenyl)-3-(4-pyridyl)-6,7-dihydro-[5H]-pyrrolo[1,2-a]-imidazole] stands 1000 nM; under `COc1ccc(-c2nc3n(c2-c2ccncc2)CCC3)cc1` [Compound 10, 2-(4-Methoxyphenyl)-3-(4-pyridyl)-6,7-dihydro-[5H]-pyrrolo-[1,2-a]imidazole], 500 nM; under `CC(=O)OCSc1ccc(-c2nc3n(c2-c2ccncc2)CCC3)cc1` [Compound 9, 2-(4-Acetoxymethylthiophenyl)3-(4-pyridyl)-6,7-dihydro[5H]pyrrolo-[1,2-a]-imidazole], 3000 nM.
The same measure, in the same setting: under `COc1ccc(-c2nc3n(c2-c2ccncc2)CCC3O)cc1` (centres unmarked) [Compound 8, 5,6-dihydro-2-(4-methoxyphenyl)-3-(4-pyridinyl)-[7H]-pyrrolo[1,2-a]-imidazole-7-ol] stands 1000 nM.
Regarding `CC[S+]([O-])c1ccc(-c2nc3n(c2-c2ccncc2)CCC3)cc1` (centres unmarked) [Compound 15, 2-(4-Ethylsulfinylphenyl)-3-(4-pyridyl)-6,7-dihydro[5H]pyrrolo[1,2-a]imidazole], in experiment [5], the IC50 worked out at 7000 nM. For the same compound, in the experiment on TNF [1], the “in vivo TNF levels” value is on record as “inhibited in vivo TNF levels” and the “protection from endotoxic induced shock” value is listed as “protected the animals from endotoxic induced shock”.
`CSc1ccc(-c2nc3n(c2-c2ccnc(C)c2)CCC3)cc1` [Compound 16, 2-(4-Methylthiophenyl)-3-[4-(2-methylpyridyl)]-6,7-dihydro[5H]pyrrolo-[1,2-a]imidazole]: in the experiment on TNF [1], the “in vivo TNF levels” value is on record as “inhibited in vivo TNF levels”.

The values are drawn from EP0403251A2, “Monokine activity interference” (SMITHKLINE BEECHAM CORPORATION, priority 1989, dated 1990).
